Results: patent US20150274719A1, “AMINO-SUBSTITUTED IMIDAZO[1,2-A]PYRIDINECARBOXAMIDES AND THEIR USE” (BAYER PHARMA AKTIENGESELLSCHAFT, priority 2012, published 2015)

Biological target: T1, recombinant guanylate cyclase reporter cell line (Rattus norvegicus, UniProt P19686+P20595)
T1 construct: expressed in transfected cells; host or cells: recombinant reporter cell line
T1 sequence (P19686 1-690): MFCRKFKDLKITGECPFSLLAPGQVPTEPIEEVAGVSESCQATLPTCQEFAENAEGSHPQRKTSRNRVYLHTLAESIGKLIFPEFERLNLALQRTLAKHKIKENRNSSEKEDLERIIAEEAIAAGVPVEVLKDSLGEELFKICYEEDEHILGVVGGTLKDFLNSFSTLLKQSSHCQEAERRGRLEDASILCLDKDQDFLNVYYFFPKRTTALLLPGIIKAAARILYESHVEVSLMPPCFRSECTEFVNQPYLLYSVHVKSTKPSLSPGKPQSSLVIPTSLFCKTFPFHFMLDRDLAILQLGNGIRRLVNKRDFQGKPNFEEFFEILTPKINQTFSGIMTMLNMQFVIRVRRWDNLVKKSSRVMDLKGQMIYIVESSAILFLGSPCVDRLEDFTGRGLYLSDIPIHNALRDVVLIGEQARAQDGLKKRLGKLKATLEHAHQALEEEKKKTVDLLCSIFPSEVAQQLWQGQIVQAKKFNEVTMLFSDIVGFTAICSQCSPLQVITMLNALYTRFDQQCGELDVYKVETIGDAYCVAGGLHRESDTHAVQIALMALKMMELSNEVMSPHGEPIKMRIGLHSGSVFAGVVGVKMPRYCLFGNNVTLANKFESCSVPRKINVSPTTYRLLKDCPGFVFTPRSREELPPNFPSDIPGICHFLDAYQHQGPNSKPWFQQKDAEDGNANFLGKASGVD
T1 sequence (P20595 1-619): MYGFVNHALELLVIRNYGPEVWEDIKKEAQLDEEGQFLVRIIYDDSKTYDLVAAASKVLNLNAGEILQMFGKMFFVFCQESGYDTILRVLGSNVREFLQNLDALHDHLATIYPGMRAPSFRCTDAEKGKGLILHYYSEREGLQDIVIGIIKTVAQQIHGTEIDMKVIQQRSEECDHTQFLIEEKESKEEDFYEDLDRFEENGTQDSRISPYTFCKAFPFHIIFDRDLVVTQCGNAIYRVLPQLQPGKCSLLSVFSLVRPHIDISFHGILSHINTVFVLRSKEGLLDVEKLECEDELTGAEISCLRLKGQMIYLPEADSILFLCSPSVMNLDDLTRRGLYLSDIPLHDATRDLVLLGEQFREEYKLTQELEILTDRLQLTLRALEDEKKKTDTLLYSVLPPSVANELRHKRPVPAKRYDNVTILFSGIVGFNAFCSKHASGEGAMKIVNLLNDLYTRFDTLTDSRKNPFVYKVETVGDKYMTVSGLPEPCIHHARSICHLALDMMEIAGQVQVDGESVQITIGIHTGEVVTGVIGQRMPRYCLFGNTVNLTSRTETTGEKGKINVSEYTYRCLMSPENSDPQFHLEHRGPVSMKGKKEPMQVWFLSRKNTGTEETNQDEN
Assay: Action on recombinant guanylate cyclase reporter cell line
Assay type: cell-based
Settings: in some cases mean values from individual determinations
How it was run: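 Read-out: MEC (minimal effective concentration) in cells. Reporter line carries recombinant sGC. Some values are averages of single runs.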

| Compound | MEC (minimal effective concentration) [µM] |
| --- | --- |
| Cc1cc(OCc2c(F)cccc2F)c2nc(C)c(C(=O)NC(CN)c3ccc4ccccc4c3)n2c1 (racemic) [Example 379, rac-N-[2-amino-1-(2-naphthyl)ethyl]-8-[(2,6-difluorobenzyl)oxy]-2,6-dimethylimidazo[1,2-a]pyridine-3-carboxamide] | 1.00 |
| Cc1cc(OCc2c(F)cccc2F)c2nc(C)c(C(=O)NC(CN)c3cccc(OC(F)(F)F)c3)n2c1 (racemic) [Example 380, rac-N-{2-amino-1-[3-(trifluoromethoxy)phenyl]ethyl}-8-[(2,6-difluorobenzyl)oxy]-2,6-dimethylimidazo[1,2-a]pyridine-3-carboxamide] | 1.00 |
| Cc1cc(OCc2c(F)cccc2F)c2nc(C)c(C(=O)NC(CN)c3ccc4c(c3)OCO4)n2c1 (racemic) [Example 381, rac-N-[2-amino-1-(1,3-benzodioxol-5-yl)ethyl]-8-[(2,6-difluorobenzyl)oxy]-2,6-dimethylimidazo[1,2-a]pyridine-3-carboxamide] | 0.30 |
| Cc1cc(OCc2c(F)cccc2F)c2nc(C)c(C(=O)NC(CN)c3ccc([N+](=O)[O-])cc3)n2c1 (racemic) [Example 384, rac-N-[2-amino-1-(4-nitrophenyl)ethyl]-8-[(2,6-difluorobenzyl)oxy]-2,6-dimethylimidazo[1,2-a]pyridine-3-carboxamide] | 0.30 |
| C=Cc1cccc(C(CN)NC(=O)c2c(C)nc3c(OCc4c(F)cccc4F)cc(C)cn23)c1 (racemic) [Example 385, rac-N-[2-amino-1-(3-ethenylphenyl)ethyl]-8-[(2,6-difluorobenzyl)oxy]-2,6-dimethylimidazo[1,2-a]pyridine-3-carboxamide] | 1.00 |
| COc1ccc(CC(C)(CN)NC(=O)c2c(C)nc3c(OCc4c(F)cccc4F)cc(C)cn23)cc1 (racemic) [Example 386, rac-N-[1-amino-3-(4-methoxyphenyl)-2-methylpropan-2-yl]-8-[(2,6-difluorobenzyl)oxy]-2,6-dimethylimidazo[1,2-a]pyridine-3-carboxamide] | 0.65 |

The next lines start with the values.

| MEC (minimal effective concentration) [µM] | Compound |
| --- | --- |
| 3.00 | Cc1cc(OCc2c(F)cccc2F)c2nc(C)c(C(=O)NCC(N)c3cccc(OC(F)(F)F)c3)n2c1 (racemic) [Example 377, rac-N-{2-amino-2-[3-(trifluoromethoxy)phenyl]ethyl}-8-[(2,6-difluorobenzyl)oxy]-2,6-dimethylimidazo[1,2-a]pyridine-3-carboxamide] |
| 1.00 | COc1cccc(C(N)CNC(=O)c2c(C)nc3c(OCc4c(F)cccc4F)cc(C)cn23)c1 (racemic) [Example 378, rac-N-[2-amino-2-(3-methoxyphenyl)ethyl]-8-[(2,6-difluorobenzyl)oxy]-2,6-dimethylimidazo[1,2-a]pyridine-3-carboxamide] |
| 0.30 | COc1cccc(C(CN)NC(=O)c2c(C)nc3c(OCc4c(F)cccc4F)cc(C)cn23)c1 (racemic) [Example 382, rac-N-[2-amino-1-(3-methoxyphenyl)ethyl]-8-[(2,6-difluorobenzyl)oxy]-2,6-dimethylimidazo[1,2-a]pyridine-3-carboxamide] |
| 0.30 | Cc1cc(OCc2c(F)cccc2F)c2nc(C)c(C(=O)NC(CN)c3cccc(Br)c3)n2c1 (racemic) [Example 383, rac-N-[2-amino-1-(3-bromophenyl)ethyl]-8-[(2,6-difluorobenzyl)oxy]-2,6-dimethylimidazo[1,2-a]pyridine-3-carboxamide] |
| 10.0 | Cc1cc(OCc2c(F)cccc2F)c2nc(C)c(C(=O)NC(CN)c3cnn(C)c3)n2c1 (racemic) [Example 387, rac-N-[2-amino-1-(1-methyl-1H-pyrazol-4-yl)ethyl]-8-[(2,6-difluorobenzyl)oxy]-2,6-dimethylimidazo[1,2-a]pyridine-3-carboxamide] |
